{"source": "patent US10106515B2", "about": "“1-(cyclopent-2-en-1-yl)-3-(2-hydroxy-3-(arylsulfonyl)phenyl)urea derivatives as CXCR2 inhibitors” (GLAXOSMITHKLINE INTELLECTUAL PROPERTY DEVELOPMENT LIMITED, priority 2014, dated 2018)", "note": "Where a name gives a salt, the structure may show the parent alone.", "data": [{"target": "T1, recombinant human CXCR2 (Homo sapiens, UniProt P25025)", "T1 construct": "TEV protease site; Gal4-VP16 transcription factor", "T1 sequence (P25025 1-360)": "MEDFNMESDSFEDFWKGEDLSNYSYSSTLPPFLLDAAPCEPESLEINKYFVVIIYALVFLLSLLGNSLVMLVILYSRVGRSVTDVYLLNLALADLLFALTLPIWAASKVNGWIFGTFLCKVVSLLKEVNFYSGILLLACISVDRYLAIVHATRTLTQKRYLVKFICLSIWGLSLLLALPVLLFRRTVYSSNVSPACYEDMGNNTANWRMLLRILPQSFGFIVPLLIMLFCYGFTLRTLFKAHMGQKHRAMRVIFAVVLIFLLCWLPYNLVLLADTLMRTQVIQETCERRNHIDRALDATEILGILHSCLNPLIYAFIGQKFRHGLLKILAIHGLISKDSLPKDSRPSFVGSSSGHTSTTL", "test": "CXCR2 Tango assay", "format": "cell-based", "settings": "mean pIC50 of multiple test results; stimulated with 80 nM hCXCL1; reporter gene blue/green emission ratio; read-out: pIC50 (CXCR2 Tango assay) (converted)", "excerpt": "The assay measures ligand-induced activation of the receptor CXCR2 in a stable cell line containing the recombinant human CXCR2 linked to a TEV protease site and a Gal4-VP16 transcription factor (Invitrogen). Ligand binding to the receptor results in the recruitment of arrestin proteins (tagged with protease) to the receptor and triggers the release of a tethered transcription factor. The transcription factor enters the nucleus and activates the transcription of the reporter gene. The ability of a compound to inhibit CXCR2 activation is indirectly assessed by measuring the reporter gene activity.\nA vial of cryopreserved cells was removed from liquid nitrogen and rapidly thawed in a water bath at 37° C. with gentle agitation. The contents of the vial were transferred drop-wise into Thawing Medium in a sterile 15 ml conical tube and then centrifuged at 1000 rpm for 4-5 min. Then the cell pellets were resuspended in Assay Medium at a density of ˜200,000 cells/ml. All test compounds were dissolved in DMSO at a concentration of 10 mM and were prepared in 100% DMSO to provide 10 point dose response curves. A reference CXCR2 antagonist was added to wells in row 2, columns 1-5 & 7-11. Exemplified compounds 1-4, 7, 8-10, 13-22, 24-26, 28-30, 32, 33, 36, 37, 40, 42-44. 95-110, 115-118, 120, 121, 125, 126, 129-134, 137, 138, 140, 142, 147-149, 153-157, 159-162, 163-166, 168, 170, 172, 174-180 and 202 were tested using the CXCR2 antagonist sodium 3-chloro-6-(3-(2,3-dichlorophenyl)ureido)-2-sulfamoylphenolate as reference compound (Reference Compound 1) (published International patent application WO2002/079122). […] Test compounds were added to wells in row 2, columns 13-17 & 19-23 and rows 3-15, columns 1-5 & 7-11/13-17 & 19-23 (columns 6 and 18 as positive controls and un-stimulated controls respectively; columns 12 and 24 as cell-free control). Compounds in solution were added to the assay plate (Greiner 781090) using an Echo (Labcyte) concentration-response program (50 nl/well). The cell-free, un-stimulated and positive controls were loaded with 50 nl/well pure DMSO to ensure that the DMSO concentration was constant across the plate for all assays. Using Multi-drop Combi (Thermo) with standard cassette, 50 μl of Assay Medium was added to each well in the cell-free controls (columns 12 and 24); 50 μl of the cell suspension without hCXCL1 (a CXCR2 ligand) was added to each well in column 18 of the plate (˜10,000 cells per well); and 50 μl of the cell suspension with 80 nM hCXCL1 was added to the rest of wells of the plate (˜10,000 cells per well). The cells were incubated overnight at 37° C./5% CO2. 10 μl of 6× substrate mixture (LiveBLAzer™-FRET B/G substrate (CCF4-AM) Cat # K1096 from Invitrogen, Inc.) was added to each well using Multi-drop Combi (Thermo) with small-tube cassette and the plates incubated at room temperature for 2 h in the dark. The plate was finally read on EnVision using one excitation channel (409 nm) and two emission channels (460 nm and 530 nm).\nThe blue/green emission ratio (460 nm/530 nm) was calculated for each well, by dividing the background-subtracted Blue emission values by the background-subtracted Green emission values. The dose response curve was based on sigmoidal dose-response model. All ratio data was normalized based upon the maximum emission ratio of positive control (hCXCL1) and minimum emission ratio of negative control (DMSO) on each plate. The intrinsic activity (IA) of each compound would be the normalized percentage of its maximum response after curve fitting.\nAll exemplified compounds (except for Compounds 203 and 204) were tested in the CXCR2 Tango assay or a similar assay described above. The data mentioned below represents a mean pIC 50 value of multiple test results. It is understood that the data illustrated below may have reasonable variation depending on the specific conditions and procedures used by the person conducting the testing.", "units": {"IC50": "nM"}, "values": [{"compound": "CC1=CCC[C@H]1NC(=O)Nc1ccc(Cl)c(S(=O)(=O)[C@H]2CC[C@H](O)C2)c1O", "note": "(racemic) [Compound 45, (±)-trans-1-(4-chloro-2-hydroxy-3-((3-hydroxycyclopentyl)sulfonyl)phenyl)-3-((R)-2-methylcyclopent-2-en-1-yl)urea]", "IC50": "≤ 1"}, {"compound": "CC1=CCC[C@H]1NC(=O)Nc1ccc(Cl)c(S(=O)(=O)C2CCC[C@@H]2O)c1O", "note": "(mixture of isomers) [Compound 51, (±)trans-1-(4-chloro-2-hydroxy-3-((2-hydroxycyclopent-yl)sulfonyl)phenyl)-3-((R)-2-methylcyclopent-2-en-1-yl)urea, trifluoroacetic acid salt]", "IC50": "≤ 1"}, {"compound": "COC1CCCCC1S(=O)(=O)c1c(Cl)ccc(NC(=O)NC2CCC=C2C)c1O", "note": "(racemic) [Compound 150, (±)trans-1-(4-chloro-2-hydroxy-3-((2-methoxycyclohex-yl)sulfonyl)phenyl)-3-((R)-2-methylcyclopent-2-en-1-yl)urea]", "IC50": "≤ 10"}, {"compound": "C[C@]1(S(=O)(=O)c2c(Cl)ccc(NC(=O)N[C@@H]3CCC=C3Cl)c2O)CCOC1", "note": "(single isomer, unassigned) [Compound 197]", "IC50": "≤ 10"}, {"compound": "C[C@@]1(S(=O)(=O)c2c(Cl)ccc(NC(=O)N[C@@H]3CCC=C3Cl)c2O)CCOC1", "note": "(single isomer, unassigned) [Compound 198]", "IC50": "≤ 10"}, {"compound": "CO[C@@H]1CC[C@@H](S(=O)(=O)c2c(Cl)ccc(NC(=O)N[C@@H]3CCC=C3C)c2O)C1", "note": "(stereo in doubt) [Compound 143, trans-1-(4-chloro-2-hydroxy-3-((3-methoxycyclopent-yl)sulfonyl)phenyl)-3-((R)-2-methylcyclopent-2-en-1-yl)urea]", "IC50": "≤ 1"}, {"compound": "CC(C)(C(F)(F)F)S(=O)(=O)c1c(Cl)ccc(NC(=O)NC2C=CCC2)c1O", "note": "(stereo not drawn) [Compound 1, 1-(4-chloro-2-hydroxy-3-((1,1,1-trifluoro-2-methylpropan-2-yl)sulfonyl)phenyl)-3-(cyclopent-2-en-1-yl)urea]", "IC50": "≤ 10"}, {"compound": "CC(C)(C(F)(F)F)S(=O)(=O)c1c(Cl)ccc(NC(=O)NC2CCC=C2Cl)c1O", "note": "(stereo not drawn) [Compound 2, 1-(4-chloro-2-hydroxy-3-((1,1,1-trifluoro-2-methylpropan-2-yl)sulfonyl)phenyl)-3-(2-chlorocyclopent-2-en-1-yl)urea]", "IC50": "≤ 1"}, {"compound": "CC(C)(C)S(=O)(=O)c1c(Cl)ccc(NC(=O)NC2CCC=C2Cl)c1O", "note": "(stereo not drawn) [Compound 3, 1-(3-(tert-butylsulfonyl)-4-chloro-2-hydroxyphenyl)-3-(2-chlorocyclopent-2-en-1-yl)urea]", "IC50": "≤ 10"}, {"compound": "CC(C)(c1ccccn1)S(=O)(=O)c1c(Cl)ccc(NC(=O)NC2CCC=C2Cl)c1O", "note": "(stereo not drawn) [Compound 4, 1-(4-chloro-2-hydroxy-3-((2-(pyridin-2-yl)propan-2-yl)sulfonyl)phenyl)-3-(2-chlorocyclopent-2-en-1-yl)urea, trifluoroacetic acid salt]", "IC50": "≤ 10"}, {"compound": "CC(C)(CCO)S(=O)(=O)c1c(Cl)ccc(NC(=O)N[C@@H]2CCC=C2Cl)c1O", "note": "[Compound 6, (R)-1-(4-chloro-2-hydroxy-3-((4-hydroxy-2-methylbutan-2-yl)sulfonyl)phenyl)-3-(2-chlorocyclopent-2-en-1-yl)urea]", "IC50": "≤ 1"}, {"compound": "CC(C)(CF)S(=O)(=O)c1c(Cl)ccc(NC(=O)NC2C=CCC2)c1O", "note": "(stereo not drawn) [Compound 9, 1-(4-chloro-3-((1-fluoro-2-methylpropan-2-yl)sulfonyl)-2-hydroxyphenyl)-3-(cyclopent-2-en-1-yl)urea]", "IC50": "≤ 10"}, {"compound": "CC(C)(CF)S(=O)(=O)c1c(Cl)ccc(NC(=O)NC2CCC=C2Cl)c1O", "note": "(stereo not drawn) [Compound 10, 1-(4-chloro-3-((1-fluoro-2-methylpropan-2-yl)sulfonyl)-2-hydroxyphenyl)-3-(2-chlorocyclopent-2-en-1-yl)urea]", "IC50": "≤ 10"}, {"compound": "CC(C)(CO)S(=O)(=O)c1c(Cl)ccc(NC(=O)N[C@@H]2CCC=C2Cl)c1O", "note": "[Compound 12, (R)-1-(4-chloro-2-hydroxy-3-((1-hydroxy-2-methylpropan-2-yl)sulfonyl)phenyl)-3-(2-chlorocyclopent-2-en-1-yl)urea]", "IC50": "≤ 10"}, {"compound": "CC(C)(F)S(=O)(=O)c1c(Cl)ccc(NC(=O)NC2C=CCC2)c1O", "note": "(stereo not drawn) [Compound 14, 1-(4-chloro-3-((2-fluoropropan-2-yl)sulfonyl)-2-hydroxyphenyl)-3-(cyclopent-2-en-1-yl)urea]", "IC50": "≤ 10"}, {"compound": "CC(C)(F)S(=O)(=O)c1c(Cl)ccc(NC(=O)NC2CCC=C2Cl)c1O", "note": "(stereo not drawn) [Compound 15, 1-(4-chloro-3-((2-fluoropropan-2-yl)sulfonyl)-2-hydroxyphenyl)-3-(2-chlorocyclopent-2-en-1-yl)urea]", "IC50": "≤ 10"}, {"compound": "CC1=C(Cl)CCC1NC(=O)Nc1ccc(Cl)c(S(=O)(=O)C(C)C)c1O", "note": "(stereo not drawn) [Compound 16, 1-(4-chloro-2-hydroxy-3-(isopropylsulfonyl)phenyl)-3-(3-chloro-2-methylcyclopent-2-en-1-yl)urea]", "IC50": "≤ 10"}, {"compound": "CC1=C(F)CCC1NC(=O)Nc1ccc(Cl)c(S(=O)(=O)C(C)C)c1O", "note": "(stereo not drawn) [Compound 17, 1-(4-chloro-2-hydroxy-3-(isopropylsulfonyl)phenyl)-3-(3-fluoro-2-methylcyclopent-2-en-1-yl)urea]", "IC50": "≤ 10"}, {"compound": "CC(C)S(=O)(=O)c1c(Cl)ccc(NC(=O)NC2C=CCC2)c1O", "note": "(stereo not drawn) [Compound 18, 1-(4-chloro-2-hydroxy-3-(isopropylsulfonyl)phenyl)-3-(cyclopent-2-en-1-yl)urea]", "IC50": "≤ 10"}, {"compound": "CC(C)S(=O)(=O)c1c(Cl)ccc(NC(=O)NC2CCC=C2Cl)c1O", "note": "(stereo not drawn) [Compound 21, 1-(4-chloro-2-hydroxy-3-(isopropylsulfonyl)phenyl)-3-(2-chlorocyclopent-2-en-1-yl)urea]", "IC50": "≤ 1"}, {"compound": "CC(C)S(=O)(=O)c1c(Cl)ccc(NC(=O)NC2CCC=C2F)c1O", "note": "(stereo not drawn) [Compound 22, 1-(4-chloro-2-hydroxy-3-(isopropylsulfonyl)phenyl)-3-(2-fluorocyclopent-2-en-1-yl)urea]", "IC50": "≤ 10"}, {"compound": "CC(c1ccccn1)S(=O)(=O)c1c(Cl)ccc(NC(=O)NC2C=CCC2)c1O", "note": "(stereo not drawn) [Compound 24, 1-(4-chloro-2-hydroxy-3-((1-(pyridin-2-yl)ethyl)sulfonyl)phenyl)-3-(cyclopent-2-en-1-yl)urea, trifluoroacetic acid salt]", "IC50": "≤ 10"}, {"compound": "CC1=CCCC1NC(=O)Nc1ccc(Cl)c(S(=O)(=O)C(C)c2ccccn2)c1O", "note": "(stereo not drawn) [Compound 25, 1-(4-chloro-2-hydroxy-3-((1-(pyridin-2-yl)ethyl)sulfonyl)phenyl)-3-(2-methylcyclopent-2-en-1-yl)urea, trifluoroacetic acid salt]", "IC50": "≤ 10"}, {"compound": "CC(c1ccccn1)S(=O)(=O)c1c(Cl)ccc(NC(=O)NC2CCC=C2Cl)c1O", "note": "(stereo not drawn) [Compound 26, 1-(4-chloro-2-hydroxy-3-((1-(pyridin-2-yl)ethyl)sulfonyl)phenyl)-3-(2-chlorocyclopent-2-en-1-yl)urea]", "IC50": "≤ 10"}]}]}
